One assay deals with BIR3 domain of human cIAP1 (amino acids 256 to 363; cIAP1 BIR3) (Homo sapiens (Human), UniProt Q13490). Put plainly: cIAP1 BIR3 binding assay (DELFIA).
BIR3 domain of human cIAP1 (amino acids 256 to 363; cIAP1 BIR3), sequence (Q13490 256-363): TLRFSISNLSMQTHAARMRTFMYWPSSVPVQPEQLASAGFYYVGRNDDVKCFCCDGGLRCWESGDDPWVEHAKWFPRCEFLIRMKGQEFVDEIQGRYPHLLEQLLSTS
Conditions: not given
The procedure:
XIAP BIR3 and cIAP1 BIR3 Binding Assays (DELFIA)
Peptide […]-Lys(Biotin), representing the N-terminus of mature human SMAC (SMAC peptide), was used as interaction partner in the protein-peptide interaction assay.
BIR3 domains (10 nM) were incubated with SMAC peptide (10 nM) in assay buffer (50 mM Tris, 120 mM NaCl, 0.1% BSA, 1 mM DTT, 0.05% TritonX100) for one hour at room temperature in the presence of inhibitory compounds. The assay mixture was transferred to a streptavidin coated plate and incubated for one hour at room temperature to allow binding of the biotinylated peptide and associated BIR3 domains to the plate. After several washing steps Eu labeled anti-GST antibody (e.g. Perkin Elmer DELFIA Eu-N1-antiGST AD0250) was added to detect BIR3 domain-SMAC peptide interactions m according to Perkin Elmer's instructions. […] Time resolved Europium fluoresecence was measured in a Wallac Victor using Standard assay settings.
DELFIA assay results were plotted against compound concentrations and Software GraphPad Prizm was used to calculate half maximal inhibitory concentrations (IC50 values).
With `CNC(C)C(=O)Nc1cc(-c2nc(C)nc3c(C)nn(C)c23)cc(NC(=O)c2ncc(Cl)cc2C)n1` (centres unmarked) [Example 60, 5-chloro-3-methyl-N-{6-[2-(methylamino)propanamido]-4-{trimethyl-1H-pyrazolo-[4,3-d]pyrimidin-7-yl}-pyridin-2-yl}pyridine-2-carboxamide], the IC50 is 0.034 µM.

The same assay, now with this note: BIR3 domain 10 nM, SMAC peptide 10 nM; values represent the (S)-isomers; * = racemic compound; read-out: cIAP1 BIR-3 IC50.
Take `CNC(C)C(=O)Nc1cc(-c2cncc3ccn(C)c23)cc(NC(=O)c2ccc(Cl)cn2)n1` (centres unmarked) [Example 52, 5-chloro-N-(4-{1-methyl-1H-pyrrolo[3,2-c]pyridin-7-yl}-6-[2-(methylamino)propanamido]pyridin-2-yl)pyridine-2-carboxamide]: the IC50 was found to be 0.001 µM.

As for `CNC(C)C(=O)Nc1cc(-c2cccc3cncc(C)c23)cc(NC(=O)c2ccc(Cl)cn2)n1` (centres unmarked) [Example 53], the IC50 amounted to 0.001 µM.

For the molecule `CNC(C)C(=O)Nc1cc(-c2c(Cl)cnc3ccccc23)cc(NC(=O)c2ccc(Cl)cn2)n1` (centres unmarked) [Example 54, 5-chloro-N-[4-(3-chloroquinolin-4-yl)-6-[2-(methylamino)propanamido]pyridin-2-yl]pyridine-2-carboxamide], the concentration for half-maximal inhibition (IC50) was found to be 0.011 µM.

Regarding `Cc1cccc2ccn(-c3cc(NC(=O)c4ccc(Cl)cn4)nc(NC(=O)C(C)N)c3)c12` (centres unmarked) [Example 55, N-[6-(2-aminopropanamido)-4-(7-methyl-1H-indol-1-yl)pyridin-2-yl]-5-chloropyridine-2-carboxamide], the IC50 was 0.045 µM.

For `CC(N)C(=O)Nc1cc(Cl)cc(NC(=O)c2ccccn2)n1` (centres unmarked) [Example 56, N-[6-(2-aminopropanamido)-4-chloropyridin-2-yl]pyridine-2-carboxamide], the IC50 stood at 4.6 µM.

As for `Cc1ccc(C(=O)Nc2cccc(NC(=O)C(C)N)n2)nc1` (centres unmarked) [Example 57, N-[6-(2-aminopropanamido)pyridin-2-yl]-5-methylpyridine-2-carboxamide], the IC50 is 0.421 µM.

As to `CNC(C)C(=O)Nc1cc(-c2nc(C)nc3c(C)c(C)n(C)c23)cc(NC(=O)c2ccc(Cl)cn2)n1` (centres unmarked) [Example 59, 5-chloro-N-{6-[2-(methylamino)propanamido]-4-{tetramethyl-5H-pyrrolo[3,2-d]pyrimidin-4-yl}pyridin-2-yl}pyridine-2-carboxamide], the IC50 was 0.001 µM.

In the case of `CNC(C)C(=O)Nc1cc(-c2ncnc3c(C)nn(C)c23)cc(NC(=O)c2ncc(Cl)cc2C)n1` (centres unmarked) [Example 61, 5-chloro-N-(4-{1,3-dimethyl-1H-pyrazolo[4,3-d]pyrimidin-7-yl}-6-[2-(methylamino)-propanamido]pyridin-2-yl)-3-methylpyridine-2-carboxamide], the IC50 stood at 0.001 µM.

For `CNC(C)C(=O)Nc1cc(-c2nc(C)nc3c(C)nn(C)c23)cc(NC(=O)c2ncc(Cl)cc2F)n1` (centres unmarked) [Example 62, 5-chloro-3-fluoro-N-{6-[2-(methylamino)propanamido]-4-{trimethyl-1H-pyrazolo-[4,3-d]pyrimidin-7-yl}-pyridin-2-yl)pyridine-2-carboxamide], the IC50 is 0.001 µM.

On to `CNC(C)C(=O)Nc1cc(-c2nc(OC)nc3c(C)nn(C)c23)cc(NC(=O)c2ccc(Cl)cn2)n1` (centres unmarked) [Example 63, 5-chloro-N-(4-{5-methoxy-1,3-dimethyl-1H-pyrazolo[4,3-d]pyrimidin-7-yl}-6-[2-(methylamino)-propanamido]pyridin-2-yl)pyridine-2-carboxamide], for which the IC50 is 0.055 µM.

A word on the IC50: it is the point on the concentration scale where inhibition reaches its midpoint.

The values are drawn from patent US9249151B2, “Bis-amido pyridines” (Boehringer Ingelheim International GmbH, priority 2013, dated 2016).
